Experiment [1] in a line: control 3'UTR Renilla luciferase suppression, dose response, counter-screen for Shn3 inhibitor project, cell-based, Clone20-Shn3RL, cherry-picked (AID 624133). It counts as functional.
Experiment [2] is described as follows: HepG2 cell cytotoxicity, dose response, cytotoxicity control for Shn3 inhibitor project, CellTiter-Glo, cherry-picked (AID 624134). Type of experiment: functional, cell-based.
Experiment [3] can be described thus: Shn3 3'UTR reporter inhibitors, dose response, cell-based, Clone20 osteoblasts, firefly luciferase, cherry-picked (AID 624132).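 Also: firefly luciferase luminescence from reporter carrying the Shn3 3'UTR in osteoblasts.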 Type of experiment: functional.
The target in experiment [4] is T1, Corticotropin-releasing factor receptor 2/Corticotropin-releasing factor-binding protein (Homo sapiens, UniProt P24387+Q13324).
T1 sequence (Q13324 whole entry): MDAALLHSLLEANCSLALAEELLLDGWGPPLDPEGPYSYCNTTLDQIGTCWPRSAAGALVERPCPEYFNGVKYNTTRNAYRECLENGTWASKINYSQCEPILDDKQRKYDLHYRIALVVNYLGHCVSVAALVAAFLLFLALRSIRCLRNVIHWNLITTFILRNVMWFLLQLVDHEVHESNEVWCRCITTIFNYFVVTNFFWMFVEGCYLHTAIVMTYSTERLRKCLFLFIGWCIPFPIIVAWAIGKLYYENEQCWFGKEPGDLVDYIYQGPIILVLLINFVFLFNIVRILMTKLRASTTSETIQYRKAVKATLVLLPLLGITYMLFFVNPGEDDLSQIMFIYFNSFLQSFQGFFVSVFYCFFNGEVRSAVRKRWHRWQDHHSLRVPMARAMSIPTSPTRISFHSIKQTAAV
T1 sequence (P24387 whole entry): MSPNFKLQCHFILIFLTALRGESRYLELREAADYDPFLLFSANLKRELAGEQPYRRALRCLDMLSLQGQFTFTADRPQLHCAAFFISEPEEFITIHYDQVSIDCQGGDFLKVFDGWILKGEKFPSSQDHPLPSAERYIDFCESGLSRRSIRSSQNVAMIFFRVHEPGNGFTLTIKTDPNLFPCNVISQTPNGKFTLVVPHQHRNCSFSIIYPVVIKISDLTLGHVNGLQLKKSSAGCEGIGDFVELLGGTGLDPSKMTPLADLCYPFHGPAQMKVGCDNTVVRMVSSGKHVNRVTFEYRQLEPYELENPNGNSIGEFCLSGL
In words: activators of CRF receptor 2 with binding protein – uHTS hits, confirmation (AID 602473). Type of experiment: functional. As to conditions: read-out: EC50_Mean.

Experiment [5] addresses T1, Corticotropin-releasing factor receptor 2/Corticotropin-releasing factor-binding protein. In words: Dose Response confirmation of uHTS hits for small molecule antagonists of the CRF-binding protein and CRF-R2 receptor complex. Type of experiment: functional. Conditions: read-out: IC50_Mean.
For experiment [6], the target named is T2, Cytochrome P450 1A2 (Homo sapiens, UniProt P05177).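 Also: PubChem cytochrome P450 panel assay, CYP1A2 panel member.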
T2 sequence (P05177 whole entry): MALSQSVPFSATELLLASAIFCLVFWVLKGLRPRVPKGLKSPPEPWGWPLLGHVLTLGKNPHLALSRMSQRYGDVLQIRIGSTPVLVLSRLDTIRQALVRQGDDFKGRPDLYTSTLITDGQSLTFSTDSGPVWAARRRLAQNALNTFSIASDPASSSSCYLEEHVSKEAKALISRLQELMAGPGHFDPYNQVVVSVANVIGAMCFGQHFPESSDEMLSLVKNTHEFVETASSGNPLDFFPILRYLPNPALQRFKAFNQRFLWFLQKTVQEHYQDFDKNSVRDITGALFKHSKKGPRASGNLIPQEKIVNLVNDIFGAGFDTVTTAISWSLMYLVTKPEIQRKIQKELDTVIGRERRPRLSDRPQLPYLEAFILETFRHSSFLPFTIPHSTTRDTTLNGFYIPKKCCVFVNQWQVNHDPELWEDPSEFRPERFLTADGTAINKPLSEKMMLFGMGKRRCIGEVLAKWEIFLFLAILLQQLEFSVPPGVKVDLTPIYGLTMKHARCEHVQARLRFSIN

For experiment [7], the target named is Cytochrome P450 3A4 (Homo sapiens, UniProt P08684).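 Also: CYP3A4 tested as one member of a cytochrome P450 panel screen.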
Experiment [8] addresses Cytochrome P450 2C9 (Homo sapiens, UniProt P11712).
In experiment [9] the target is Cytochrome P450 2D6 (Homo sapiens, UniProt P10635).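 Also: CYP2D6 member of a cytochrome P450 panel assay.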
Experiment [10] addresses T3, RNA-binding protein pos-1 (Caenorhabditis elegans, UniProt G5EF15).
T3 sequence (G5EF15 whole entry): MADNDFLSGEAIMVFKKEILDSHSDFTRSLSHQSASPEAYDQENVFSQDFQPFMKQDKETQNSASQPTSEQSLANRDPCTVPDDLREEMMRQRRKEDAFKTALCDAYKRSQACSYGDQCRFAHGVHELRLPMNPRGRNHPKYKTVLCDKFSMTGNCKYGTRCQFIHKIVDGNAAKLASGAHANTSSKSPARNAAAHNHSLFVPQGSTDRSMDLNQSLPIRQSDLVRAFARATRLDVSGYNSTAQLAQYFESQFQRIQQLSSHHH
The experiment in a line: inhibitors of POS-1/mex-3 RNA binding, dose response, biochemical, fluorescence polarization (AID 1964).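 Also: purified POS-1 fused to maltose binding protein made in E. coli; potency of compounds blocking POS-1 binding to fluorescent RNA.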

Experiment [11] has as its target T4, Zinc finger protein mex-5 (Caenorhabditis elegans, UniProt Q9XUB2).
T4 sequence (Q9XUB2 whole entry): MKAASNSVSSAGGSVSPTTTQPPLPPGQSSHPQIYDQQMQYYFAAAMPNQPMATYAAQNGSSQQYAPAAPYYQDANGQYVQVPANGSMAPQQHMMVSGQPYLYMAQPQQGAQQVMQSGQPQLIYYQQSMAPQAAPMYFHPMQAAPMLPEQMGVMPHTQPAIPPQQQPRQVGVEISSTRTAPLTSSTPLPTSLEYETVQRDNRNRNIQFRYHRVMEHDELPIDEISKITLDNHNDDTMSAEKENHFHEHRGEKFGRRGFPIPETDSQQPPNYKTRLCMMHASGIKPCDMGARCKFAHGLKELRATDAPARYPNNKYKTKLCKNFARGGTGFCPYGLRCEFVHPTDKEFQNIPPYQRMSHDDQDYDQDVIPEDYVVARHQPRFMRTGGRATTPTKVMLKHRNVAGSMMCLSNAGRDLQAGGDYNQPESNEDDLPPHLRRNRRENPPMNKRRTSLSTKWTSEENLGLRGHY
The experiment in a line: MEX-5/TCR-2 RNA interaction inhibitors, dose response, biochemical, C. elegans, fluorescence polarization (AID 1960).

Experiment [12] addresses Paired box protein Pax-8 (Homo sapiens, UniProt Q06710). In words: inhibitors of PAX8-driven TPO luciferase reporter, dose response, RMG-I cells, cherry-pick (AID 687027).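 Also: luciferase reporter driven by Pax8 target thyroperoxidase promoter measured by SteadyGlo luminescence.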 Type of experiment: functional, cell-based.
For experiment [13], the target named is T5, Polyadenylate-binding protein 1 (Homo sapiens, UniProt P11940). The experiment in a line: PABP1 MLLE–PAM2 binding inhibitor potency, dose response, biochemical, fluorescence polarization, FITC-PAM2 peptide (AID 602259). Conditions: read-out: IC50_Mean. It counts as functional.
For experiment [14], the target named is T5, Polyadenylate-binding protein 1. In words: PABP1 MLLE–PAM2 interaction inhibitors, dose response, miRNA deadenylation inhibitor project, biochemical, fluorescence polarization, Cy5-PAM2 peptide, secondary (AID 602260). It counts as functional. As to conditions: read-out: IC50_Mean.

Each structure is given as a SMILES string. The source made the active and inactive calls.

Cytochrome P450 2C9, sequence (P11712 whole entry): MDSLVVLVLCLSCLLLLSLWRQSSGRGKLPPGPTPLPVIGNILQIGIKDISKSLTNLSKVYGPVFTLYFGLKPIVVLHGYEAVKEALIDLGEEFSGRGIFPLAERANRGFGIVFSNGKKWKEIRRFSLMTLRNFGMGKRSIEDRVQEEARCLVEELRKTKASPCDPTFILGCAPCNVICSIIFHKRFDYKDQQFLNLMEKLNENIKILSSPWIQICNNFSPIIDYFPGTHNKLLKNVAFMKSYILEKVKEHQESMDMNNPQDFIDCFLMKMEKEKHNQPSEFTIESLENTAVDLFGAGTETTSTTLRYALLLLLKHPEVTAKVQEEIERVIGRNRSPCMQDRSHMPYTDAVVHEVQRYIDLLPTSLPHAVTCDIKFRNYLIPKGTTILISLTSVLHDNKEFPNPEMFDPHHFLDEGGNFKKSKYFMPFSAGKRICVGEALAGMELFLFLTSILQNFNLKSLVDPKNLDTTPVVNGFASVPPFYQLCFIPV
Paired box protein Pax-8, sequence (Q06710 whole entry): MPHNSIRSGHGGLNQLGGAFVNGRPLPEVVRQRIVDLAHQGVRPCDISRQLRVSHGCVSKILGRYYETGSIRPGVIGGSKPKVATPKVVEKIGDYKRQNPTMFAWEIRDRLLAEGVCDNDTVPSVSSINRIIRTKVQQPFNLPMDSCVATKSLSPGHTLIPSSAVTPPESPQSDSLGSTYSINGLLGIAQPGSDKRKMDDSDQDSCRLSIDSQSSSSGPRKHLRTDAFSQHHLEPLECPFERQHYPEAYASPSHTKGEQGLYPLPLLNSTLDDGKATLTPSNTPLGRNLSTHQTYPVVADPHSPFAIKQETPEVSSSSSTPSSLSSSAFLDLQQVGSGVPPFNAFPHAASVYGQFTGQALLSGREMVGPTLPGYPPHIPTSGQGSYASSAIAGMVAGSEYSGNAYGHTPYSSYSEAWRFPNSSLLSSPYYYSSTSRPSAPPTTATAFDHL
Cytochrome P450 3A4, sequence (P08684 whole entry): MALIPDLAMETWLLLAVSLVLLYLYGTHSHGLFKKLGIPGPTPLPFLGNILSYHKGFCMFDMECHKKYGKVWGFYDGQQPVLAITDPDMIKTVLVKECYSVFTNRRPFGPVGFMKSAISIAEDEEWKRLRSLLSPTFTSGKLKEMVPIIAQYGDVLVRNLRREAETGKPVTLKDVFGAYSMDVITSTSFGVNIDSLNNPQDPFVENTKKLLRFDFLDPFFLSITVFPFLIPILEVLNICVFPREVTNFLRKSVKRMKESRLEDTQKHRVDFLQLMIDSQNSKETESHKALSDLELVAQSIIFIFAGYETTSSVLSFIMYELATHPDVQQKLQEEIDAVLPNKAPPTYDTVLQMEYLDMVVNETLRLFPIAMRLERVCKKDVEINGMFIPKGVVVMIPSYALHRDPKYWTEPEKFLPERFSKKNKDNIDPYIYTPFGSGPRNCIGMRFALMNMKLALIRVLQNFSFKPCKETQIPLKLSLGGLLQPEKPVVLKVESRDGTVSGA
Cytochrome P450 2D6, sequence (P10635 whole entry): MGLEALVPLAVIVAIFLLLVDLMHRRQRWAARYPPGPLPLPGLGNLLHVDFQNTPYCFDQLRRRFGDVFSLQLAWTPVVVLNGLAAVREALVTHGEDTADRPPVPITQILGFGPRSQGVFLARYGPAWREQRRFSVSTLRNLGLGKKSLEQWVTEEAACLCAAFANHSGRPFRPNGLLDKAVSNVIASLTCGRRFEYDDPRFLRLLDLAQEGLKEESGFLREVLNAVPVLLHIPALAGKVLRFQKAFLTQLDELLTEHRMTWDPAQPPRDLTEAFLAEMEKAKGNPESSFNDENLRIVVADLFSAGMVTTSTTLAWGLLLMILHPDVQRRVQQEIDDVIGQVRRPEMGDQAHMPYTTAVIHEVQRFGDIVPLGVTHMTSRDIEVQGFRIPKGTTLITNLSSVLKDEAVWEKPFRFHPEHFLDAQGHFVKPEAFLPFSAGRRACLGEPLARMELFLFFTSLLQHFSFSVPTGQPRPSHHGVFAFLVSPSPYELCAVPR
T5 sequence (P11940 whole entry): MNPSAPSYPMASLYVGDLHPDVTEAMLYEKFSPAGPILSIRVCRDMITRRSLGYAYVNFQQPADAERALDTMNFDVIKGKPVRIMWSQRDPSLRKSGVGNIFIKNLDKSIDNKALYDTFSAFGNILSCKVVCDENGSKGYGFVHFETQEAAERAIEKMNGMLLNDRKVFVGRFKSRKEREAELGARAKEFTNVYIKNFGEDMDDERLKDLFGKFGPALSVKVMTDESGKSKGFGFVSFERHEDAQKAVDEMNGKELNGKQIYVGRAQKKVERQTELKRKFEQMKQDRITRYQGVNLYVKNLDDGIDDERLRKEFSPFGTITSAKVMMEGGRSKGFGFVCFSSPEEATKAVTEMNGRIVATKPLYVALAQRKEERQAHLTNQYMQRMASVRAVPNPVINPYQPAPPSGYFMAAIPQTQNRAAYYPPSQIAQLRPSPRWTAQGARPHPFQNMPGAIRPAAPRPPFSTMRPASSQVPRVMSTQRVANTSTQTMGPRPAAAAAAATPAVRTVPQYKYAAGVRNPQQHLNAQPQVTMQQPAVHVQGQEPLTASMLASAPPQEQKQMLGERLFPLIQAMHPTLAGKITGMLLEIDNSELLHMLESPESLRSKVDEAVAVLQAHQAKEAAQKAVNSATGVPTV

For the compound `COc1ccc(NC(=O)C2Cc3c(-c4cccc(C(C)=O)c4)ccnc3O2)cc1OC` (centres undefined), the AC50 was 4.68 µM (active) in [1], 7.75 µM (active) in [2] and 0.799 µM (active) in experiment [3].

Regarding `COC(=O)Cc1ccc(NC(=S)NCCC(C)C)cc1`, the EC50 in [4] was > 53 µM (inactive). In addition, in experiment [5], the IC50 was > 47.1 µM (inactive).

Regarding `Cc1nn(CC(=O)NCc2ccccc2Cl)c(C)c1[N+](=O)[O-]`, the half-maximal activity concentration (AC50) is 12.6 µM (inconclusive) in experiment [6], 14.1 µM (inconclusive) in [7], 12.6 µM (inconclusive) in experiment [8] and 25.1 µM (inconclusive) in experiment [9].

In the case of `O=C(CCc1ccccc1)Nc1c(F)cccc1F`, in experiment [4], the EC50 is > 53 µM (inactive). For the same compound, the IC50 in experiment [5] was > 47.1 µM (inactive).

As to `C=CCN1C(=O)NC(=O)/C(=C/c2c(CCN(C)C(=O)c3ccccc3)cc3c(c2OC)OCO3)C1=O`, the EC50 in experiment [10] and in experiment [11] was > 300 µM (not active) throughout.

Regarding `O=C(N/N=C/c1ccc(Cl)cc1)Nc1ccccc1`, the concentration at half-maximal activity (AC50) in experiment [7] is 12.6 µM (inconclusive); in experiment [8], 25.1 µM (inconclusive).

Regarding `COc1ccc(-c2nc(C(=O)N3CCN(C)CC3)sc2-c2ccc(OC)cc2)cc1` [FR-122047], the AC50 in experiment [6] is 31.6 µM (inconclusive); in experiment [7] it was 7.94 µM (inconclusive); in [8], 20 µM (inconclusive).

Turning to `COc1cccc(=O)c2c(C)oc(C)c12`, the EC50 in experiment [10] and in [11] was > 300 µM (not active) each time.

For the compound `COc1ccc(CNCCC(c2ccc(OC(C)C)cc2)c2ccccc2OC)cc1OC` (centres undefined), the AC50 in experiment [1] is 5.37 µM (active); in experiment [2] it was 19.1 µM (active); in experiment [3] it was 4.35 µM (active).

Regarding `Cc1cc(/C=N/NC(=O)c2ccoc2C)cc(C)c1O`, in experiment [4], the EC50 is > 53 µM (inactive). Further, the IC50 in [5] was > 47.1 µM (inactive).

For `CCC(Oc1ccccc1)C(=O)Nc1ccccn1` (centres undefined), the EC50 in experiment [10] and in [11] was > 300 µM (not active) throughout.

In the case of `O=C(NC1CC1)c1ccc2c(c1)C1C3CCC(C3)C1C(c1ccccc1)N2` (centres undefined), the AC50 in [12] was 48.2 µM (active).

`Cc1cccc(C)c1N1CCN(C(=O)c2ccc3c(c2)OCO3)CC1`: the EC50 in experiment [4] was > 53 µM (inactive). In [5], the IC50 was > 47.1 µM (inactive).

Take `C[C@@H]1CN([C@H](C)CO)C(=O)c2cc(NC(=O)Nc3ccc(F)cc3)ccc2O[C@@H](C)CCCCO[C@H]1CN(C)Cc1ccc(Cl)c(Cl)c1`: the concentration at half-maximal activity (AC50) in experiment [12] is 9.51 µM (active).

Regarding `Cc1cc(C)c2c(CC(=O)Nc3nccs3)coc2c1`, the EC50 in [4] is > 53 µM (inactive). Further, the IC50 in experiment [5] is > 47.1 µM (inactive).

`COCCn1c(=N)c(C(=O)NCc2ccco2)cc2c(=O)n3cc(C)ccc3nc21`: the IC50 in experiment [13] is 16.7 µM (active); in experiment [14], 33.2 µM (inactive); in [5] it was > 47.1 µM (inactive). Further, the EC50 in experiment [4] is > 53 µM (inactive).

For `C[C@@H](C(=O)O)/C(=C/c1ccc2c(c1)OCO2)C(=O)O`, the AC50 in experiment [6] is 0.316 µM (inconclusive); in experiment [7] it was 6.31 µM (inconclusive).

For the compound `S=C(Nc1ccc2c(c1)OCO2)Nc1ccccc1Cl`, the EC50 in experiment [4] is > 53 µM (inactive). Also, the IC50 in experiment [5] is > 47.1 µM (inactive).

For `O=C(NCc1ccncc1)c1cc(F)c(F)cc1Cl`, the EC50 in experiment [4] was > 53 µM (inactive). In addition, the IC50 in [5] is > 47.1 µM (inactive).

Turning to `COc1ccc(NC(=O)/C=C/c2cccc(Br)c2)cn1`, the figures for the EC50 in [10] and in experiment [11] were 16 µM (active) and 12.4 µM (active), respectively.

On to `CN1C(=O)C(=Cc2c[nH]c3ccccc23)C(=O)N(C)C1=O`, for which the EC50 in [10] is 52.9 µM (active); in experiment [11] it was 151 µM (active).

As for `C[C@@H]1CCCCO[C@@H](CN(C)Cc2ccc(Cl)c(Cl)c2)[C@H](C)CN([C@@H](C)CO)C(=O)c2cc(NS(=O)(=O)c3ccccc3)ccc2O1`, the AC50 in [12] is 13.4 µM (active).

Turning to `OC(c1cc(-c2cccc(Cl)c2)nc2ccccc12)C1CCCCN1` (centres undefined), the concentration at half-maximal activity (AC50) is 15.4 µM (active) in [1], 16 µM (active) in [2] and 10.8 µM (active) in experiment [3].

Turning to `Cc1cc(NC(=O)CCN2CCN(C/C=C/c3ccccc3)CC2)ccc1Br`, the half-maximal activity concentration (AC50) is 15 µM (active) in experiment [1], > 70 µM (inactive) in [2] and 10.2 µM (active) in experiment [3].

As for `Cc1nc(Nc2nc(CSc3nc4ccccc4[nH]3)cc(=O)[nH]2)nc2ccccc12`, the AC50 in experiment [12] was 9.16 µM (active).

As for `Clc1ccc2nncn2n1`, the EC50 in [4] was > 53 µM (inactive). Moreover, the IC50 in [5] is > 47.1 µM (inactive).

Consider `Nc1ncnc(NNC(=O)CNC(=O)c2c(F)cccc2Cl)c1[N+](=O)[O-]`, for which the EC50 in [4] is > 53 µM (inactive); in [10] it was 0.548 µM (active); in [11] it was 0.241 µM (active). The IC50 in experiment [5] is > 47.1 µM (inactive).

On to `O=c1[nH]n(-c2ncnc3c2cnn3-c2ccccc2)c(=O)c2ccccc12`, for which the EC50 in experiment [10] is 11.6 µM (active); in experiment [11], 7.26 µM (active).

Regarding `C/C(=N\NC(=O)c1cccc(Cl)c1)c1cccc(NC(=O)C(C)C)c1`, the AC50 in [7] is 15.8 µM (inconclusive); in [9], 28.2 µM (inconclusive).

Take `COc1cc(C2C(C#N)=C(N)Oc3[nH]nc(-c4ccccn4)c32)cc(OC)c1OC` (centres undefined): the EC50 in experiment [4] was > 53 µM (inactive). In addition, in experiment [5], the IC50 was > 47.1 µM (inactive).

Take `Cc1cccn2c(=O)c3cc(C(=O)NC4CCCC4)c(=N)n(CCc4ccccc4)c3nc12`: the EC50 in [10] and in experiment [11] was > 300 µM (not active) in each case.
